Read-outs that look alike come from different tables or passages of the source.
How the values were obtained:
[1] = test system: MSTO-211H cells; assay: Tumor cell proliferation inhibition experiment (Cell Titer Glo), MSTO-211H; format: cell-based; conditions: MSTO-211H lung cancer cells, three days incubation
Method: (§1) Cell Titer Glo luminescent cell viability assay kit was used to quantify the ATP content in cells, so as to quantify the number of viable cells. […] On the second day, the compound was added to the 96-well plate after a three-fold serial dilution to eight concentrations, and incubated at 37° C. for three days in the 5% carbon dioxide incubator. The culture medium was treated with the addition of Cell Titer Glo luminescent cell viability assay kit (Promega G7570) reagent, incubated for 10 minutes, and then placed in Envision (Pelkin Elmer) to read the luminescence signal. DMSO was used instead of the compound as a control to calculate the inhibition rate (inhibition rate %=(1−compound signal/DMSO signal)*100), and then standard four parameter curve fitting was used to calculate the inhibitory activity IC50.

[2] = Pharmacokinetic evaluation experiment in mice (IV and PO); format: in vivo; conditions: male ICR mice; for Vd: read-out: Vss
Method: 120 healthy adult male ICR mice were selected and divided into 20 groups according to the principle of similar body weight, with 6 mice in each group of IV (10 groups) and 6 mice in each group of PO (10 groups). An appropriate amount of sample was weighed, sequentially added with an appropriate amount of DMA, Solutol, and Saline according to the volume ratio of 10:10:80, and stirred and sonicated to achieve a clarification of 1 mg/mL. After overnight fasting, mice in the IV group were intravenously administered with a volume of 5 mL/kg and a dose of 5 mg/kg, respectively; and mice in the PO group were intragastrically administered with a volume of 30 mL/kg and a dose of 30 mg/kg, respectively. Interleaved sampling was performed on every 6 mice after administration of the test compound. In the IV group, approximately 30 μL of blood was collected at 0.0833, 0.25, 0.5, 1, 2, 4, 6, 8, and 24 hours, and placed in a commercial anticoagulant tube pre-filled with EDTA-K2. In the PO group, approximately 30 μL of blood was collected at 0.25, 0.5, 1, 2, 4, 6, 8, and 24 hours, and placed in the commercial anticoagulant tube pre-filled with EDTA-K2. The tubes were centrifuged for 15 minutes to separate the plasma, and the plasma was stored at −80° C. Animals were allowed to eat 2 hours after administration. The content of the test compound in the plasma of mice after intravenous and intragastric administration was determined by LC/MS/MS method. The linear range of the method was 1.00 to 1000 ng/mL: plasma samples were analyzed after protein precipitation.

[3] = test system: NCI-H2052 cells; assay: Tumor cell proliferation inhibition experiment (Cell Titer Glo), NCI-H2052; format: cell-based; conditions: NCI-H2052 lung cancer cells, three days incubation
Method: as §1

[4] = mouse, plasma, PO 30 mg/kg vs IV 5 mg/kg
[5] = mouse, IV 5 mg/kg, plasma, read-out: AUC
[6] = mouse, PO 30 mg/kg, plasma, read-out: AUC
[7] = mouse, PO 30 mg/kg, plasma, read-out: Cmax
[8] = mouse, PO 30 mg/kg, plasma, read-out: Tmax

SMILES | IC50 [1] [nM] | AUC ([2]; IV 5 mg/kg, plasma) [ng·h/mL] | CL ([2]; IV 5 mg/kg, plasma) [mL/min/kg] | T1/2 ([2]; IV 5 mg/kg, plasma) [h] | Vss ([2]; IV 5 mg/kg, plasma) [L/kg] | F % ([2]; PO 30 mg/kg vs IV 5 mg/kg) [%] | AUC ([2]; PO 30 mg/kg, plasma) [ng·h/mL] | Cmax ([2]; PO 30 mg/kg, plasma) [ng/mL] | Tmax ([2]; PO 30 mg/kg, plasma) [h] | IC50 [3] [nM] | IC50 ([1]; Homo sapiens, 72 h) [nM] | bioavailability [2, 4] [%] | clearance ([2]; mouse, IV 5 mg/kg, plasma) [mL/min/kg] | half-life ([2]; mouse, IV 5 mg/kg, plasma) [h] | AUC [2, 5] [ng·h/mL] | Vd ([2]; mouse, IV 5 mg/kg, plasma) [L/kg] | AUC [2, 6] [ng·h/mL] | Cmax [2, 7] [ng/mL] | Tmax [2, 8] [h] | IC50 ([3]; Homo sapiens, 72 h) [nM]
CNC(=O)c1cc2c(c(F)c1-c1c(Cl)c(F)cc3c1C[C@@](CN[C@H]1CC[C@](C)(O)CC1)(c1ccccc1)O3)C1CC1O2 (stereo partly shown) [Compound 14a] | 320 | 3462 | 24.1 | 2.35 | 4.34 | 102.1 | 21209 | 2697 | 2.00 | 360 | – | – | – | – | – | – | – | – | – | –
CNC(=O)c1cc2c(c(F)c1-c1c(Cl)c(F)cc3c1C[C@](c1ccccc1)([C@@H]1CC4(CC4)CN1)O3)C1CC1O2 (stereo partly shown) [Compound 16a] | – | – | – | – | – | – | – | – | – | – | 1730 | 40.3 | 56.4 | 2.28 | 1480 | 11.4 | 3570 | 434 | 2 | 1850
CNC(=O)c1cc2c(c(F)c1-c1c(Cl)c(F)cc3c1C[C@](c1ccccc1)([C@@H]1CC4(CC4)CN1)O3)OC1CC21 (stereo partly shown) [Compound 18a] | – | – | – | – | – | – | – | – | – | – | 690 | 27.9 | 107 | 1.59 | 804 | 12.2 | 1680 | 199 | 0.8 | 730

The remaining molecules from weak to strong by IC50 ([1]; Homo sapiens, 72 h), led by results:

IC50 [1] [nM] | AUC ([2]; IV 5 mg/kg, plasma) [ng·h/mL] | CL ([2]; IV 5 mg/kg, plasma) [mL/min/kg] | T1/2 ([2]; IV 5 mg/kg, plasma) [h] | Vss ([2]; IV 5 mg/kg, plasma) [L/kg] | F % ([2]; PO 30 mg/kg vs IV 5 mg/kg) [%] | AUC ([2]; PO 30 mg/kg, plasma) [ng·h/mL] | Cmax ([2]; PO 30 mg/kg, plasma) [ng/mL] | Tmax ([2]; PO 30 mg/kg, plasma) [h] | IC50 [3] [nM] | IC50 ([1]; Homo sapiens, 72 h) [nM] | bioavailability [2, 4] [%] | clearance ([2]; mouse, IV 5 mg/kg, plasma) [mL/min/kg] | half-life ([2]; mouse, IV 5 mg/kg, plasma) [h] | AUC [2, 5] [ng·h/mL] | Vd ([2]; mouse, IV 5 mg/kg, plasma) [L/kg] | AUC [2, 6] [ng·h/mL] | Cmax [2, 7] [ng/mL] | Tmax [2, 8] [h] | IC50 ([3]; Homo sapiens, 72 h) [nM] | SMILES
– | – | – | – | – | – | – | – | – | – | 200 | 44.6 | 17.9 | 3.52 | 2790 | 4.44 | 7470 | 928 | 1 | 250 | CNC(=O)c1cc2c(c(F)c1-c1c(Cl)c(F)cc3c1C[C@](c1ccccc1)([C@@H]1CCCN1)O3)CCC2 [Compound 31a]
– | – | – | – | – | – | – | – | – | – | 190 | 61.8 | 36.5 | 2.19 | 2280 | 5.32 | 8460 | 1270 | 2 | 420 | CNC(=O)c1cc2c(c(F)c1-c1c(Cl)c(F)cc3c1C[C@](c1ccccc1)([C@@H]1CCCN1)O3)CCC2O (stereo partly shown) [Compound 41a]
– | – | – | – | – | – | – | – | – | – | 150 | 14.4 | 44.2 | 4.18 | 1880 | 6.94 | 1620 | 301 | 0.5 | 160 | NC(=O)c1cc2c(c(F)c1-c1c(Cl)c(F)cc3c1C[C@](c1ccccc1)([C@@H]1CCCN1)O3)CCC2O (stereo partly shown) [Compound 53a]
– | – | – | – | – | – | – | – | – | – | 80 | 52.2 | 75.8 | 1.79 | 1100 | 11.7 | 3450 | 424 | 1.33 | 90 | CNC(=O)c1cc2c(c(F)c1-c1c(Cl)c(F)cc3c1C[C@](c1ccccc1)([C@@H]1CCCN1)O3)OC1CC21 (stereo partly shown) [Compound 17a]
